Measurements taken from patent US9090667B2, “Cyclic peptide from Nonomuraea sp., process for the production thereof, and pharmaceutical composition for the prevention or treatment of mycobacteria related disease comprising the same” (priority 2011, dated 2015).
≈ marks a conversion by molar mass, not a printed value. Where two headings read alike, the source gives them in different places. Numbered stars: 1 amine (or outer) side, 2 acyl side, 3 side chain; on linkers, the order of the positions; unused ones are H or OH. Bridge positions count the residues as written; N and C are the ends. Square brackets hold non-standard residues; d marks the D form. Peptide text beside a SMILES is read from it. * marks the point of attachment. ξ: configuration not given here. NMeTrp(4-OMe) = CN[CH](Cc1c[nH]c2cccc(OC)c12)C(=O)O; X1 = O=C(C(N[*:1])C(O)c1ccccc1)[*:2]; NMeI = CC[CH](C)[CH](NC)C(=O)O; ξNMe2Val = CC(C)C(C(=O)*)N(C)C; NMeT = CN[CH](C(=O)O)[CH](C)O; NMeL = CN[CH](CC(C)C)C(=O)O; NMeV = CN[CH](C(=O)O)C(C)C

Legend:
Nonomuraea sp. MJM5123 = experiment: Antibiotic resistance test of the producing strain; assay type: cell-based; conditions: ISP2 medium, 2 weeks at 28° C.; for Growth in the presence of antibiotics: 50 μg/ml
Procedure: To test for melanoid pigments, peptone yeast extract iron agar (ISP6) and tyrosine agar (ISP7, with or without tyrosine) was used. Temperature range, NaCl tolerance and pH range for growth was determined on ISP3 medium and antibiotic resistance test was performed on ISP2 medium for 2 weeks at 28° C.

M. tuberculosis H37Rv [1] = experiment: Aerobic MBC99; assay type: cell-based, Mycobacterium tuberculosis; conditions: for classification from MBC99 versus MIC: MBC99 approximately two-fold higher than MIC; for MBC99: aerobic, H37Rv, minimum concentration that kills 99% of organisms
M. tuberculosis X005319 = conditions: Euro-American clade, strain X005319
[2] = tested on: nonreplicating M. tuberculosis; assay type: cell-based, Mycobacterium tuberculosis; conditions: for concentration effecting a 99% reduction in viability (MBC under low oxygen): 10 days incubation under non-replicating conditions, cfu readout; for concentration reducing viability of non-replicating M. tuberculosis by one log10: LORA
M. smegmatis = experiment: Antibacterial selectivity MIC; assay type: cell-based, Mycobacterium smegmatis; conditions: compared with M. tuberculosis
Procedure: (§1) Selectivities of H-14 and H-16 were determined by screening them against Escherichia coli, a Gram-negative bacterium, Staphylococcus aureus, a Gram-positive bacterium, Candida albicans, a yeast, and six mycobacterial species (Table 16).

M. tuberculosis X003899 = conditions: IndoOceanic clade, strain X003899
M. tuberculosis X005282 = conditions: Euro-American clade, strain X005282
M. tuberculosis X001354 = conditions: East African Indian clade, strain X001354
Candida albicans = experiment: Antibacterial selectivity MIC; assay type: cell-based; conditions: C. albicans; for activity: at 31 μM
Procedure: as §1

Escherichia coli = experiment: Antibacterial selectivity MIC; assay type: cell-based; conditions: E. coli; for activity: at 31 μM
Procedure: as §1

Staphylococcus aureus = experiment: Antibacterial selectivity MIC; assay type: cell-based; conditions: S. aureus; for activity: at 31 μM
Procedure: as §1

M. tuberculosis H37Rv [3] = tested on: M. tuberculosis H37Rv
M. tuberculosis H37Pv = assay type: cell-based, Mycobacterium tuberculosis
Vero cells = experiment: Toxicity against mammalian cells (Vero); assay type: cell-based, African green monkey; conditions: for IC50: Vero cells, read-out: Vero cell IC50; for in vitro mammalian cell toxicity: at 100-fold their MBC; for cytotoxicity: highest testing concentration (32 μM)
Procedure: Cytoxicities of H-14 and H-16 against mammalian cells were evaluated by testing against Vero cells, an African green monkey kidney cell line (Table 18). No cytoxicity was found for either compound at even the highest testing concentration (32 μM).

M. abscesses = experiment: Antibacterial selectivity MIC; assay type: cell-based, Mycobacterium abscessus; conditions: for activity: M. abscesses, compared with the other mycobacteria; for MIC: M. abscessus
Procedure: as §1

M. tuberculosis X004244 = conditions: East Asian clade, strain X004244
M. tuberculosis X004439 = conditions: East Asian clade, strain X004439
M. tuberculosis H37Rv [4] = experiment: microbe, parasite or virus in culture; conditions: Mycobacterium tuberculosis
[5] = aerobic, replicating M. tuberculosis H37Rv, concentration inhibiting growth by 90%

Structure (SMILES): CC1(C)S[C@@H]2[C@H](NC(=O)[C@H](N)c3ccccc3)C(=O)N2[C@H]1C(=O)O [Ampicillin]
- Growth in the presence of antibiotics (Nonomuraea sp. MJM5123): +
- susceptibility of MJM5123 to the antibiotic (Nonomuraea sp. MJM5123): resistant

Structure (SMILES): CN[C@@H]1[C@@H](O[C@H]2O[C@H](CO)[C@@H](N)[C@H](O)[C@H]2O)OC2C[C@@H](N)[C@@H](O[C@H]3[C@H](O)[C@@H](O)[C@H](N)C[C@@H]3N)OC2[C@@H]1O (stereo partly shown) [Apramycin]
- Growth in the presence of antibiotics (Nonomuraea sp. MJM5123): −
- susceptibility of MJM5123 to the antibiotic (Nonomuraea sp. MJM5123): susceptible

Structure (SMILES): CCC(C)C(C(=O)NC1C(=O)N(C)C(C(C)O)C(=O)NC(C(C)C)C(=O)N(C)C(CC(C)C)C(=O)NC(C(C)C)C(=O)N(C)C(C(C)C)C(=O)N(C)C(Cc2c[nH]c3cccc(OC)c23)C(=O)NC(C(C)C)C(=O)NC(C(O)c2ccccc2)C(=O)NC(C(C)C)C(=O)OC1C)N(C)C(=O)C(NC(=O)C(C(C)C)N(C)C)C(C)C (stereo not shown) [H-14] (ξNMe2Val-V[NMeI]T[NMeT]V[NMeL]V[NMeV][NMeTrp(4-OMe)]V[X1]V; ester 3-C; configuration not given here)
- classification from MBC99 versus MIC (M. tuberculosis H37Rv [1]): bactericidal
- MBC99 (M. tuberculosis H37Rv [1]): 0.34 µM (≈ 0.544 µg/mL)
- MIC (M. tuberculosis X005319): 0.36 µM (≈ 0.576 µg/mL)
- concentration effecting a 99% reduction in viability (MBC under low oxygen) [2]: approximately 1.5 μM
- concentration reducing viability of non-replicating M. tuberculosis by one log10 [2]: approximately 1.5 μM
- activity (M. smegmatis): activity was lower
- MIC (M. tuberculosis X003899): 0.23 µM (≈ 0.368 µg/mL)
- MIC (M. tuberculosis X005282): 0.14 µM (≈ 0.224 µg/mL)
- MIC (M. tuberculosis X001354): 0.38 µM (≈ 0.608 µg/mL)
- MIC (Candida albicans): >32 µM
- antimicrobial activity (Candida albicans): Neither of the compounds displayed antimicrobial activity
- activity (Candida albicans): no activity
- MIC (Escherichia coli): >32 µM
- antimicrobial activity (Escherichia coli): Neither of the compounds displayed antimicrobial activity
- activity (Escherichia coli): no activity
- MIC (Staphylococcus aureus): >32 µM
- antimicrobial activity (Staphylococcus aureus): Neither of the compounds displayed antimicrobial activity
- activity (Staphylococcus aureus): no activity
- MIC (M. tuberculosis H37Rv [3]; H37Rv reference in Table 15): 0.38 µM (≈ 0.608 µg/mL)
- MIC (M. tuberculosis H37Rv [3]; H37Rv reference in Table 19): 0.16 µM (≈ 0.256 µg/mL)
- MIC (M. tuberculosis H37Rv [3]; [5]): 0.16 µM (≈ 0.256 µg/mL)
- MIC vs. M. tuberculosis (M. tuberculosis H37Pv; 0.5% BSA): 0.16 µM (≈ 0.256 µg/mL)
- MIC vs. M. tuberculosis (M. tuberculosis H37Pv; 4% BSA): 0.58 µM (≈ 0.928 µg/mL)
- MIC vs. M. tuberculosis (M. tuberculosis H37Pv; 10% BSA): 0.36 µM (≈ 0.576 µg/mL)
- IC50 (Vero cells): > 32 µM
- in vitro mammalian cell toxicity (Vero cells): no in vitro mammalian cell toxicity
- cytotoxicity (Vero cells): No cytoxicity
- activity (M. abscesses): significantly less active
- MIC (M. abscesses): >63 µM
- MIC (M. tuberculosis X004244): 0.13 µM (≈ 0.208 µg/mL)
- MIC (M. tuberculosis X004439): 0.29 µM (≈ 0.464 µg/mL)

Structure (SMILES): CCC(C)C(C(=O)NC1C(=O)N(C)C(C(C)O)C(=O)NC(C(C)C)C(=O)N(C)C(CC(C)C)C(=O)NC(C(C)C)C(=O)N(C)C(C(C)C)C(=O)N(C)C(Cc2c[nH]c3cccc(OC)c23)C(=O)NC(C(C)C)C(=O)NC(Cc2ccccc2)C(=O)NC(C(C)C)C(=O)OC1C)N(C)C(=O)C(NC(=O)C(C(C)C)N(C)C)C(C)C (stereo not shown) [H-16] (ξNMe2Val-V[NMeI]T[NMeT]V[NMeL]V[NMeV][NMeTrp(4-OMe)]VFV; ester 3-C; configuration not given here)
- classification from MBC99 versus MIC (M. tuberculosis H37Rv [1]): bactericidal
- MBC99 (M. tuberculosis H37Rv [1]): 0.19 µM (≈ 0.301 µg/mL)
- MIC (M. tuberculosis X005319): 0.34 µM (≈ 0.539 µg/mL)
- concentration effecting a 99% reduction in viability (MBC under low oxygen) [2]: approximately 1.5 μM
- concentration reducing viability of non-replicating M. tuberculosis by one log10 [2]: approximately 1.5 μM
- activity (M. smegmatis): activity was lower
- MIC (M. tuberculosis X003899): 0.19 µM (≈ 0.301 µg/mL)
- MIC (M. tuberculosis X005282): 0.14 µM (≈ 0.222 µg/mL)
- MIC (M. tuberculosis X001354): 0.37 µM (≈ 0.586 µg/mL)
- MIC (Candida albicans): >32 µM
- antimicrobial activity (Candida albicans): Neither of the compounds displayed antimicrobial activity
- activity (Candida albicans): no activity
- MIC (Escherichia coli): >32 µM
- antimicrobial activity (Escherichia coli): Neither of the compounds displayed antimicrobial activity
- activity (Escherichia coli): no activity
- MIC (Staphylococcus aureus): >32 µM
- antimicrobial activity (Staphylococcus aureus): Neither of the compounds displayed antimicrobial activity
- activity (Staphylococcus aureus): no activity
- MIC (M. tuberculosis H37Rv [3]; H37Rv reference in Table 15): 0.37 µM (≈ 0.586 µg/mL)
- MIC (M. tuberculosis H37Rv [3]; H37Rv reference in Table 19): 0.16 µM (≈ 0.253 µg/mL)
- MIC (M. tuberculosis H37Rv [3]; [5]): 0.16 µM (≈ 0.253 µg/mL)
- IC50 (Vero cells): > 32 µM
- in vitro mammalian cell toxicity (Vero cells): no in vitro mammalian cell toxicity
- cytotoxicity (Vero cells): No cytoxicity
- activity (M. abscesses): significantly less active
- MIC (M. abscesses): >32 µM
- MIC (M. tuberculosis X004244): 0.09 µM (≈ 0.143 µg/mL)
- MIC (M. tuberculosis X004439): 0.19 µM (≈ 0.301 µg/mL)

Structure (SMILES): NC[C@H]1O[C@H](O[C@H]2[C@H](O)[C@@H](O[C@H]3O[C@H](CO)[C@@H](O)[C@H](N)[C@H]3O)[C@H](N)C[C@@H]2N)[C@H](O)[C@@H](O)[C@@H]1O [Kanamycin]
- Growth in the presence of antibiotics (Nonomuraea sp. MJM5123): −

Structure (SMILES): C=C(NC(=O)C(=C)NC(=O)c1csc(C2=N[C@@H]3c4csc(n4)[C@H]4NC(=O)c5csc(n5)[C@H]([C@](C)(O)[C@@H](C)O)NC(=O)[C@H]5CSC(=N5)/C(=C/C)NC(=O)[C@H]([C@@H](C)O)NC(=O)c5csc(n5)[C@]3(CC2)NC(=O)[C@H](C)NC(=O)C(=C)NC(=O)[C@H](C)NC(=O)[C@H]([C@@H](C)CC)N[C@@H]2C=Cc3c([C@H](C)O)cc(nc3[C@H]2O)C(=O)O[C@@H]4C)n1)C(N)=O [Thiostrepton]
- Growth in the presence of antibiotics (Nonomuraea sp. MJM5123): −
- susceptibility of MJM5123 to the antibiotic (Nonomuraea sp. MJM5123): susceptible

Structure (SMILES): CN[C@H](CC(C)C)C(=O)N[C@H]1C(=O)N[C@@H](CC(N)=O)C(=O)N[C@H]2C(=O)N[C@H]3C(=O)N[C@H](C(=O)N[C@H](C(=O)O)c4cc(O)cc(O)c4-c4cc3ccc4O)[C@H](O)c3ccc(c(Cl)c3)Oc3cc2cc(c3O[C@@H]2O[C@H](CO)[C@@H](O)[C@H](O)[C@H]2O[C@H]2C[C@](C)(N)[C@H](O)[C@H](C)O2)Oc2ccc(cc2Cl)[C@H]1O [Vancomycin]
- Growth in the presence of antibiotics (Nonomuraea sp. MJM5123): −
- susceptibility of MJM5123 to the antibiotic (Nonomuraea sp. MJM5123): susceptible

Structure (SMILES): NNC(=O)c1ccncc1 [isoniazid]
- MIC (M. tuberculosis H37Rv [4]): 0.47 µM (≈ 0.0645 µg/mL)

Structure (SMILES): CO[C@H]1/C=C/O[C@@]2(C)Oc3c(C)c(O)c4c(O)c(c(/C=N/N5CCN(C)CC5)c(O)c4c3C2=O)NC(=O)/C(C)=C\C=C\[C@H](C)[C@H](O)[C@@H](C)[C@@H](O)[C@@H](C)[C@H](OC(C)=O)[C@@H]1C [rifampin]
- MIC (M. tuberculosis H37Rv [4]): 0.09 µM (≈ 0.0741 µg/mL)
